{"source": "patent US8790654B2", "about": "“Glycosylceramide adjuvant for saccharide antigens” (Novartis AG, priority 2004, dated 2014)", "test_system": "CRM protein carrier", "assay": "CRM-specific Ig titre in mice immunised with MenC-CRM conjugate with or without α-GalCer", "assay_type": "in vivo", "details": "MenC-CRM conjugate and α-GalCer, compared with conjugate alone; 2wp2 and 2wp3", "protocol": "C) Immunisation schedule for mice with different polysaccharides, plain, conjugated or admixed with protein carriers, with and without α-GalCer. Ten groups of wild-type C57BL/6 mice were primed on day 0 with: 1) PBS, 2) 0.1 μg with α-GalCer, 3) 10 μg MenC polysaccharide, 4) 20 μg CRM protein carrier, 5) 30 μg of a MenC-CRM conjugate, 6) 10 μg MenC polysaccharide admixed with CRM protein carrier, or the compositions in 3)-6) and α-GalCer (groups 7-10). Mice were boosted two and four weeks after they were primed with the same composition with which they were primed. Mice were bled 2, 4 and 6 weeks after initial priming (2wp1, 2wp2 and 2wp3) and the levels of antibodies against both the MenC polysaccharide and the CRM carrier were measured.\nFIG. 5: α-GalCer enhances the specific antibody response against both the MenC polysaccharide and the CRM protein carrier in a MenC-CRM conjugate. Wild-type mice were primed with 10 μg MenC polysaccharide, 20 μg CRM protein carrier, 10 μg MenC polysaccharide admixed with CRM protein carrier (MenC+CRM), or 30 μg of a MenC-CRM conjugate, or the same compositions with α-GalCer. Mice were boosted two and four weeks after they were primed with the same composition with which they were primed.", "data": [{"molecule": "CCCCCCCCCCCCCCCCCCCCCCCCCC(=O)N[C@@H](CO[C@H]1O[C@H](CO)[C@H](O)[C@H](O)[C@H]1O)[C@H](O)[C@H](O)CCCCCCCCCCCCCC", "note": "[α-GalCer, α-galactosylceramide]", "values": [{"measurement": "CRM-specific Ig titre", "result": "enhanced"}]}]}
